Assay [1] concerns SNCA triplication fibroblasts. Nature of the assay: SNCA triplication fibroblasts from a PD patient transduced with AAV peptides. The format is cell-based, human. How it is done:
HEK293T cells, tet-off split luciferase a-syn cells, tet-off parent cells and SH-SY5Y cell lines were maintained in DMEM (ATCC) supplemented with 10% FBS and 1% pen/strep/glutamine, and the appropriate selection antibiotics when required. tet-off split luciferase a-syn cells and tet-off parent cells were kept with doxycycline at 1 ng/mL for inhibition of gene expression. SNCA triplication fibroblasts were obtained from NINDS (National Institute of Neurological Disorders and Stroke) and maintained in DMEM supplemented with 10% FBS and 1% pen/strep/glutamine. HA antibodies were obtained from Santa Cruz (7392) and Flag antibodies were purchased from Sigma (A8592). GFP antibodies were purchased from Abcam (ab290).
The Lysosome Intracellular Activity Assay kit was purchased from Abcam and used per manufacturer's instructions (ab234622). […] For HEK293 cells, cells were re-suspended in PBS containing DMSO or Leupeptin and analyzed by FACS. […]
After fixation, cells were permeabilized with 0.2% Triton X-100 for 15 min, washed 3 times with PBS and then incubated with blocking solution (1% BSA, 22.52 mg/mL glycine, 0.1% Tween-20 in PBS) for 1 h. […] Following another 3 PBS washes, nuclei were counterstained with DAPI (ThermoFisher) and then coverslips were mounted on slides using fluorescence mounting medium (DAKO) and sealed using clear nail varnish.

Assay [2] relates to HEK293 cells overexpressing human a-syn (WT). Nature of the assay: Cytotoxicity screen of lentiviral 7-mer peptide library, Alpha Syn (WT) cells under MG132. The format is cell-based. The source says:
A screening system to discover candidate peptides to perturb endogenous PPIs based on libraries of short linear interaction motifs that mediate a large fraction (˜30%) of human PPIs (10-12) was recently developed. Here, a lentiviral library of 50,549 7-mer peptide motifs (13) on a green fluorescent protein (GFP) scaffold (FIG. 1A) was used. Cells in a pooled format were infected and the amino acid sequence of each peptide served as its own barcode. By using a low multiplicity of infection followed by puromycin selection, each infected cell expressed one unique GFP-peptide. Peptides that reduced a-syn-mediated cytotoxicity or a-syn oligomers in parallel (FIG. 1A), were screened for.
To cause cytotoxicity relevant to PD, proteostatic stress in HEK293 cells was induced by inhibiting the proteasome with MG132 and inducing the overexpression of human a-syn (WT) from idiopathic PD in one screen and the more toxic A53T mutant from familial PD in a second screen. The combination of a-syn overexpression and pharmacological proteasome inhibition led to death of most cells, with only those that expressed a protective peptide surviving. By extracting genomic DNA from the surviving cells and amplifying the peptide coding sequences, the protective peptides (FIG. 1A) were identified.
PCR primers that included the Illumina adaptor sequences were used to amplify peptide coding sequences recovered from selection and cell sorting. Results were demultiplexed, and peptide counts were tallied. After demultiplexing, only reads with an average quality Phred score of >30 were selected, and frequencies were calculated. Finally, the reads were then normalized to the total number of peptides read for that sample population, and a scalar factor was applied. In parallel, ˜25 individual colonies were Sanger sequenced to compare to the NGS data.
Lentiviruses were made in a 15 cm dish format by transfecting packaging cells (293T) with a three-plasmid system as previously described. Viral transduction of HEK293T cells, tet-off split luciferase a-syn cells, tet-off parent cells, and SH-SY5Y cells were performed with a multiplicity of infection of 0.3 (MOI=0.3). Infected cells were selected in puromycin-containing medium to eliminate uninfected cells and three aliquots of cells were collected for sampling of the initial (TO) cell population. Cells were treated with MG132 at concentrations of 0 μM, 10 μM, 25 μM or 50 μM. For the cell viability screen, surviving cells were collected and gDNA was extracted for identification of peptide inhibitors of cell toxicity. For the inhibition of a-syn aggregation screen, split YFP-a-syn constructs were transfected following stable expression of the peptides. Cells were sorted based on their GFP fluorescence intensities with a FACSVantage SE cell sorter (BD Bioscience).
Genomic DNA (gDNA) from peptide expressing cells at different time-points was extracted using QIAamp DNA Blood Mini Kit. PCR amplifications of peptides from gDNA in parallel with the lentiviral plasmid library (naïve library) were performed using indexed Illumina PCR primers to incorporate both the Illumina adapter sequences and indexing sequences. Each 50 μl reaction contained 3.2 μg of template, 2×PCR buffer, 2× enhancer solution, 300 μM each dNTP, 900 nM each of Adapter A (5′-[…]-[…]-3′) (SEQ ID NO: 42) and Adapter B (5′-[…]-[…]-3′) (SEQ ID NO: 43), 1 mM MgSO4, 3.75 units of Platinum Pfx polymerase, and water to 50 μl. The PCR reaction was performed by denaturing at 94° C. for 5 minutes, followed by cycling (94° C. for 30 seconds, 65° C. for 30 seconds, 68° C. for 30 seconds)×28 cycles, 68° C. for 5 minutes, then cooling to 4° C. The resulting 244 bp product was purified by electrophoresis in 2% agarose followed by gel extraction. Peptide libraries were quantified using Quant-It assay (Invitrogen) and pooled. […]

The record followed here is patent US20250051391A1, “PEPTIDE INHIBITORS AND METHODS FOR INHIBITING PROTEIN AGGREGATION IN NEURONS AND NEURODEGENERATIVE DISEASES” (THE GOVERNING COUNCIL OF THE UNIVERSITY OF TORONTO, priority 2021, published 2025).

Ends that are not written are not given here.

Regarding DEEIERQLKALG [PDpep1.3], the “lysosomal activity (lysosomal flux assay)” value in assay [1] is “increased lysosomal activity”. Further, in assay [1] (RFP-tagged peptides, vs Scramble1.3), the a-syn fluorescence entry is reported as “reduced a-syn fluorescence”.
Turning to “IPIQLKA [PDpep1, top hit of all screens; maps to CHMP2B residues 203-209]”, the “Slope Norm Reads” value in assay [2] amounted to 3.45. The “Reads 0 uM MG132” value in assay [2] (normalized Illumina peptide counts, 0 uM MG132) turned out to be 90. Besides, the “Reads 10 UM MG132” value in assay [2] (normalized Illumina peptide counts, 10 µM MG132) is 1. Moreover, the “Reads 25 UM MG132” value in assay [2] (normalized Illumina peptide counts, 25 µM MG132) worked out at 1629. For the same substance, the “Reads 50 UM MG132” value in assay [2] (normalized Illumina peptide counts, 50 µM MG132) worked out at 3375.
